Source: PMC3740522, “Synthesis of the calcilytic ligand NPS 2143” (Beilstein Journal of Organic Chemistry, 2013)

Molecular target: T1, calcium-sensing receptor (CaSR) (Rattus norvegicus, UniProt P48442)
T1 sequence (P48442 20-1079): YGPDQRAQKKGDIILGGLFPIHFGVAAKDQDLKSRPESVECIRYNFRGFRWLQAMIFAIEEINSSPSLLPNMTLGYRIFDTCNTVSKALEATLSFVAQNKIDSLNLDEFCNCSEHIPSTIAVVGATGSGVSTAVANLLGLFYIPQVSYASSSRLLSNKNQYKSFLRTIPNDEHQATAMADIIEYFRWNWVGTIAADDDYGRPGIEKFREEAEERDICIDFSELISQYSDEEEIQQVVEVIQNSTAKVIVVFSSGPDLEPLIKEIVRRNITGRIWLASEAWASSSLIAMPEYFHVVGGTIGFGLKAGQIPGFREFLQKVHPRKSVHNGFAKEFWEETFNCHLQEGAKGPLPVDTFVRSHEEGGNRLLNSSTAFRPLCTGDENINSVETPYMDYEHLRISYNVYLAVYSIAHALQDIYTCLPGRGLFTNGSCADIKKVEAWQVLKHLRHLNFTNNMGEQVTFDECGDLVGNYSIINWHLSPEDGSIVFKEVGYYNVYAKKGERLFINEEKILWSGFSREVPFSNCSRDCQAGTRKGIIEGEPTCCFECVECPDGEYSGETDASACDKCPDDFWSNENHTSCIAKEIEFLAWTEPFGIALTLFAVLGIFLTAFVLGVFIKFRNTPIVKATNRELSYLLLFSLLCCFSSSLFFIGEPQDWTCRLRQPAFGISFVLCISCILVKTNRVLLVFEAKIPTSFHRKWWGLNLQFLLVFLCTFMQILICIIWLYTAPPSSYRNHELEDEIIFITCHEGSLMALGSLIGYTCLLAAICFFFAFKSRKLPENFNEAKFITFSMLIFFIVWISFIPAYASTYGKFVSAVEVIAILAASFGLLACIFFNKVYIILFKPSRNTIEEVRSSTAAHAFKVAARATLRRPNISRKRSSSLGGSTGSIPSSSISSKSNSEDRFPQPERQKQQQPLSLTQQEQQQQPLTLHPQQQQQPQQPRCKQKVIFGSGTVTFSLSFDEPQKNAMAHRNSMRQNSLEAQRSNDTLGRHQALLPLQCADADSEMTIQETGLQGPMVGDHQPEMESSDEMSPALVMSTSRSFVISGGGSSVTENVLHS
Assay: inhibition of calcium-stimulated IP1 accumulation in HEK293 cells stably transfected with rat CaSR
Assay type: cell-based

CC(C)(Cc1ccc2ccccc2c1)NC[C@@H](O)COc1cccc(Cl)c1C#N [(R)-3, NPS 2143]
IC50: 640 nM
